Reference: the supplement of paper PMC10307832

Legend:
Assay in all cases: relative viability (nuclei count vs DMSO), 5 days (fraction); higher = more cells survive
NCI-H650 = system: NCI-H650
Summary of the method: (§1)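 Dosing by pin tool came one day after lung cancer cell lines were seeded in 1536-well plates, using either one drug or a fixed anchor-drug dose plus five library-drug doses (not always all listed) in √10 steps. After 5 days, nuclei were counted on 4× images. Relative viability is treated-well nuclei count divided by vehicle-well nuclei count, and values are medians of duplicate plates.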

LOU-NH91 = system: LOU-NH91
Summary of the method: as §1

NCI-H3122 = system: NCI-H3122
Summary of the method: as §1

NCI-H596 = system: NCI-H596
Summary of the method: as §1

NCI-H1993 = system: NCI-H1993
Summary of the method: as §1

NCI-H441 = system: NCI-H441
Summary of the method: as §1

HARA = system: HARA
Summary of the method: as §1

EMC-BAC-2 = system: EMC-BAC-2
Summary of the method: as §1

NCI-H2009 = system: NCI-H2009
Summary of the method: as §1

201T = system: 201T
Summary of the method: as §1

NCI-H1666 = system: NCI-H1666
Summary of the method: as §1

NCI-H2347 = system: NCI-H2347
Summary of the method: as §1

LCLC-103H = system: LCLC-103H
Summary of the method: as §1

NCI-H23 = system: NCI-H23
Summary of the method: as §1

NCI-H2087 = system: NCI-H2087
Summary of the method: as §1

NCI-H2126 = system: NCI-H2126
Summary of the method: as §1

NCI-H727 = system: NCI-H727
Summary of the method: as §1

NCI-H2023 = system: NCI-H2023
Summary of the method: as §1

HCC-44 = system: HCC-44
Summary of the method: as §1

NCI-H647 = system: NCI-H647
Summary of the method: as §1

NCI-H838 = system: NCI-H838
Summary of the method: as §1

NCI-H1395 = system: NCI-H1395
Summary of the method: as §1

BEN = system: BEN
Summary of the method: as §1

## O=C(O)c1ccc(-c2c[nH]c3ncc(-c4ccccc4)cc23)cc1C1CCCC1 + Nc1ncn([C@H]2C[C@H](O)[C@@H](CO)O2)c(=O)n1 [Decitabine] (partner 2 µM)
NCI-H650; first compound 0.04 µM
  relative viability: 0.284
NCI-H650; first compound 0.1265 µM
  relative viability: 0.317
NCI-H650; first compound 0.4 µM
  relative viability: 0.329
NCI-H650; first compound 1.265 µM
  relative viability: 0.274
LOU-NH91; first compound 0.04 µM
  relative viability: 0.815
LOU-NH91; first compound 0.1265 µM
  relative viability: 0.859
LOU-NH91; first compound 0.4 µM
  relative viability: 0.832
LOU-NH91; first compound 1.265 µM
  relative viability: 0.718
NCI-H3122; first compound 0.04 µM
  relative viability: 0.423
NCI-H3122; first compound 0.1265 µM
  relative viability: 0.431
NCI-H3122; first compound 0.4 µM
  relative viability: 0.471
NCI-H3122; first compound 1.265 µM
  relative viability: 0.428
NCI-H596; first compound 0.04 µM
  relative viability: 1.05
NCI-H596; first compound 0.1265 µM
  relative viability: 0.933
NCI-H596; first compound 0.4 µM
  relative viability: 1.01
NCI-H596; first compound 1.265 µM
  relative viability: 1.74
NCI-H1993; first compound 0.04 µM
  relative viability: 0.552
NCI-H1993; first compound 0.1265 µM
  relative viability: 0.547
NCI-H1993; first compound 0.4 µM
  relative viability: 0.613
NCI-H1993; first compound 1.265 µM
  relative viability: 0.644
NCI-H441; first compound 0.04 µM
  relative viability: 0.221
NCI-H441; first compound 0.1265 µM
  relative viability: 0.254
NCI-H441; first compound 0.4 µM
  relative viability: 0.251
NCI-H441; first compound 1.265 µM
  relative viability: 0.251
HARA; first compound 0.04 µM
  relative viability: 0.372
HARA; first compound 0.1265 µM
  relative viability: 0.643
HARA; first compound 0.4 µM
  relative viability: 0.477
HARA; first compound 1.265 µM
  relative viability: 0.354
EMC-BAC-2; first compound 0.04 µM
  relative viability: 0.948
EMC-BAC-2; first compound 0.1265 µM
  relative viability: 1.06
EMC-BAC-2; first compound 0.4 µM
  relative viability: 1.01
EMC-BAC-2; first compound 1.265 µM
  relative viability: 0.909
NCI-H2009; first compound 0.04 µM
  relative viability: 0.411
NCI-H2009; first compound 0.1265 µM
  relative viability: 0.415
NCI-H2009; first compound 0.4 µM
  relative viability: 0.398
NCI-H2009; first compound 1.265 µM
  relative viability: 0.347
201T; first compound 0.04 µM
  relative viability: 0.862
201T; first compound 0.1265 µM
  relative viability: 0.808
201T; first compound 0.4 µM
  relative viability: 0.805
201T; first compound 1.265 µM
  relative viability: 0.811
NCI-H1666; first compound 0.04 µM
  relative viability: 0.689
NCI-H1666; first compound 0.1265 µM
  relative viability: 0.805
NCI-H1666; first compound 0.4 µM
  relative viability: 0.693
NCI-H1666; first compound 1.265 µM
  relative viability: 0.613
NCI-H2347; first compound 0.04 µM
  relative viability: 0.609
NCI-H2347; first compound 0.1265 µM
  relative viability: 0.603
NCI-H2347; first compound 0.4 µM
  relative viability: 0.647
NCI-H2347; first compound 1.265 µM
  relative viability: 0.582
LCLC-103H; first compound 0.04 µM
  relative viability: 0.767
LCLC-103H; first compound 0.1265 µM
  relative viability: 0.789
LCLC-103H; first compound 0.4 µM
  relative viability: 0.746
LCLC-103H; first compound 1.265 µM
  relative viability: 0.667
NCI-H23; first compound 0.04 µM
  relative viability: 0.329
NCI-H23; first compound 0.1265 µM
  relative viability: 0.256
NCI-H23; first compound 0.4 µM
  relative viability: 0.29
NCI-H23; first compound 1.265 µM
  relative viability: 0.251
NCI-H2087; first compound 0.04 µM
  relative viability: 0.263
NCI-H2087; first compound 0.1265 µM
  relative viability: 0.273
NCI-H2087; first compound 0.4 µM
  relative viability: 0.351
NCI-H2087; first compound 1.265 µM
  relative viability: 0.364
NCI-H2126; first compound 0.04 µM
  relative viability: 0.585
NCI-H2126; first compound 0.1265 µM
  relative viability: 0.621
NCI-H2126; first compound 0.4 µM
  relative viability: 0.466
NCI-H2126; first compound 1.265 µM
  relative viability: 0.569
NCI-H727; first compound 0.04 µM
  relative viability: 0.77
NCI-H727; first compound 0.1265 µM
  relative viability: 0.848
NCI-H727; first compound 0.4 µM
  relative viability: 0.818
NCI-H727; first compound 1.265 µM
  relative viability: 0.788
NCI-H2023; first compound 0.04 µM
  relative viability: 0.191
NCI-H2023; first compound 0.1265 µM
  relative viability: 0.243
NCI-H2023; first compound 0.4 µM
  relative viability: 0.216
NCI-H2023; first compound 1.265 µM
  relative viability: 0.17
HCC-44; first compound 0.04 µM
  relative viability: 0.973
HCC-44; first compound 0.1265 µM
  relative viability: 0.95
HCC-44; first compound 0.4 µM
  relative viability: 0.962
HCC-44; first compound 1.265 µM
  relative viability: 0.864
NCI-H647; first compound 0.04 µM
  relative viability: 0.535
NCI-H647; first compound 0.1265 µM
  relative viability: 0.409
NCI-H647; first compound 0.4 µM
  relative viability: 0.388
NCI-H647; first compound 1.265 µM
  relative viability: 0.283
NCI-H838; first compound 0.04 µM
  relative viability: 0.45
NCI-H838; first compound 0.1265 µM
  relative viability: 0.475
NCI-H838; first compound 0.4 µM
  relative viability: 0.416
NCI-H838; first compound 1.265 µM
  relative viability: 0.357
NCI-H1395; first compound 0.04 µM
  relative viability: 0.727
NCI-H1395; first compound 0.1265 µM
  relative viability: 0.697
NCI-H1395; first compound 0.4 µM
  relative viability: 0.731
NCI-H1395; first compound 1.265 µM
  relative viability: 0.728
BEN; first compound 0.04 µM
  relative viability: 0.621
BEN; first compound 0.1265 µM
  relative viability: 0.901
BEN; first compound 0.4 µM
  relative viability: 0.692
BEN; first compound 1.265 µM
  relative viability: 0.585
